Reference: PubChem BioAssay (NCI)
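Method: 48-hour compound exposure of cells in 96-well plates, five concentrations, linear interpolation of endpoints. Abbreviation: GI50, concentration required for 50% inhibition of growth. TGI: total growth inhibition.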

Assays:
Assay in all cases: growth of human tumour cells (NCI), 48 h
CCRF-CEM leukemia = tested on: CCRF-CEM leukemia
MCF7 breast = tested on: MCF7 breast
NCI-H226 lung = tested on: NCI-H226 lung
U251 CNS = tested on: U251 CNS
SW-620 colon = tested on: SW-620 colon
SNB-19 CNS = tested on: SNB-19 CNS
NCI-H23 lung = tested on: NCI-H23 lung
NCI-H522 lung = tested on: NCI-H522 lung
SF-268 CNS = tested on: SF-268 CNS
PC-3 prostate = tested on: PC-3 prostate
MOLT-4 leukemia = tested on: MOLT-4 leukemia
HOP-62 NSCLC = tested on: HOP-62 NSCLC
SF-539 CNS = tested on: SF-539 CNS
786-0 renal = tested on: 786-0 renal
UO-31 renal = tested on: UO-31 renal
NCI/ADR-RES ovarian = tested on: NCI/ADR-RES ovarian
A549 NSCLC = tested on: A549 NSCLC
SK-OV-3 ovarian = tested on: SK-OV-3 ovarian
TK-10 renal = tested on: TK-10 renal
HS 578T breast = tested on: HS 578T breast
MDA-MB-435 = tested on: MDA-MB-435
UACC-62 melanoma = tested on: UACC-62 melanoma
HCT-116 colon = tested on: HCT-116 colon
M14 melanoma = tested on: M14 melanoma
HT29 colon = tested on: HT29 colon
SN12C renal = tested on: SN12C renal
SNB-75 CNS = tested on: SNB-75 CNS
HOP-92 NSCLC = tested on: HOP-92 NSCLC
SK-MEL-5 melanoma = tested on: SK-MEL-5 melanoma
SK-MEL-28 melanoma = tested on: SK-MEL-28 melanoma
SK-MEL-2 melanoma = tested on: SK-MEL-2 melanoma
SF-295 CNS = tested on: SF-295 CNS
UACC-257 melanoma = tested on: UACC-257 melanoma
A498 renal = tested on: A498 renal
MALME-3M melanoma = tested on: MALME-3M melanoma
CAKI-1 renal = tested on: CAKI-1 renal
NCI-H460 lung = tested on: NCI-H460 lung
HCT-15 colon = tested on: HCT-15 colon
BT-549 breast = tested on: BT-549 breast
ACHN renal = tested on: ACHN renal
T-47D breast = tested on: T-47D breast
MDA-MB-231 breast = tested on: MDA-MB-231 breast
OVCAR-5 ovarian = tested on: OVCAR-5 ovarian
OVCAR-8 ovarian = tested on: OVCAR-8 ovarian
IGROV1 ovarian = tested on: IGROV1 ovarian
COLO 205 colon = tested on: COLO 205 colon
RPMI-8226 leukemia = tested on: RPMI-8226 leukemia
OVCAR-4 ovarian = tested on: OVCAR-4 ovarian
HCC-2998 colon = tested on: HCC-2998 colon
KM12 colon = tested on: KM12 colon
DU-145 prostate = tested on: DU-145 prostate
LOX IMVI melanoma = tested on: LOX IMVI melanoma
OVCAR-3 ovarian = tested on: OVCAR-3 ovarian
RXF 393 renal = tested on: RXF 393 renal
K-562 leukemia = tested on: K-562 leukemia

Compound: O=C(/C=C/c1ccc(B(O)O)cc1)/C=C/c1ccc(B(O)O)cc1
- GI50 (CCRF-CEM leukemia): 2.86 µM
- TGI (CCRF-CEM leukemia): 9.58 µM
- GI50 (MCF7 breast): 0.415 µM
- TGI (MCF7 breast): 3.89 µM
- GI50 (NCI-H226 lung): 3.23 µM
- TGI (NCI-H226 lung): 16.1 µM
- GI50 (U251 CNS): 2.82 µM
- TGI (U251 CNS): 10.4 µM
- GI50 (SW-620 colon): 1.79 µM
- TGI (SW-620 colon): 4.02 µM
- GI50 (SNB-19 CNS): 6.09 µM
- TGI (SNB-19 CNS): 21.2 µM
- GI50 (NCI-H23 lung): 2.85 µM
- TGI (NCI-H23 lung): 8.69 µM
- GI50 (NCI-H522 lung): 4.07 µM
- TGI (NCI-H522 lung): 15.7 µM
- GI50 (SF-268 CNS): 3.39 µM
- TGI (SF-268 CNS): 12.1 µM
- GI50 (PC-3 prostate): 3.31 µM
- TGI (PC-3 prostate): 14.3 µM
- GI50 (MOLT-4 leukemia): 3.59 µM
- TGI (MOLT-4 leukemia): 66.3 µM
- GI50 (HOP-62 NSCLC): 10.3 µM
- TGI (HOP-62 NSCLC): 22 µM
- GI50 (SF-539 CNS): 2.03 µM
- TGI (SF-539 CNS): 5.35 µM
- GI50 (786-0 renal): 2.16 µM
- TGI (786-0 renal): 5.57 µM
- GI50 (UO-31 renal): 1.91 µM
- TGI (UO-31 renal): 4.73 µM
- GI50 (NCI/ADR-RES ovarian): 17 µM
- TGI (NCI/ADR-RES ovarian): 62.9 µM
- GI50 (A549 NSCLC): 3.55 µM
- TGI (A549 NSCLC): 15.2 µM
- GI50 (SK-OV-3 ovarian): 3.65 µM
- TGI (SK-OV-3 ovarian): 14.5 µM
- GI50 (TK-10 renal): 5.12 µM
- TGI (TK-10 renal): 17.3 µM
- GI50 (HS 578T breast): 1.54 µM
- TGI (HS 578T breast): 5.57 µM
- GI50 (MDA-MB-435): 1.9 µM
- TGI (MDA-MB-435): 4.24 µM
- GI50 (UACC-62 melanoma): 1.73 µM
- TGI (UACC-62 melanoma): 4.41 µM
- GI50 (HCT-116 colon): 0.343 µM
- TGI (HCT-116 colon): 1.21 µM
- GI50 (M14 melanoma): 2.23 µM
- TGI (M14 melanoma): 5.9 µM
- GI50 (HT29 colon): 1.82 µM
- TGI (HT29 colon): 3.95 µM
- GI50 (SN12C renal): 3.22 µM
- TGI (SN12C renal): 13.9 µM
- GI50 (SNB-75 CNS): 3.48 µM
- TGI (SNB-75 CNS): 14.9 µM
- GI50 (HOP-92 NSCLC): 7.94 µM
- TGI (HOP-92 NSCLC): 22.9 µM
- GI50 (SK-MEL-5 melanoma): 1.94 µM
- TGI (SK-MEL-5 melanoma): 4.47 µM
- GI50 (SK-MEL-28 melanoma): 2.26 µM
- TGI (SK-MEL-28 melanoma): 5.21 µM
- GI50 (SK-MEL-2 melanoma): 16 µM
- TGI (SK-MEL-2 melanoma): 40.9 µM
- GI50 (SF-295 CNS): 2.02 µM
- TGI (SF-295 CNS): 5.66 µM
- GI50 (UACC-257 melanoma): 3.4 µM
- TGI (UACC-257 melanoma): 13.3 µM
- GI50 (A498 renal): 2.34 µM
- TGI (A498 renal): 10.3 µM
- GI50 (MALME-3M melanoma): 6.3 µM
- TGI (MALME-3M melanoma): 20.9 µM
- GI50 (CAKI-1 renal): 6.22 µM
- TGI (CAKI-1 renal): 19.2 µM
- GI50 (NCI-H460 lung): 8.19 µM
- TGI (NCI-H460 lung): 23.6 µM
- GI50 (HCT-15 colon): 2.67 µM
- TGI (HCT-15 colon): 10.7 µM
- GI50 (BT-549 breast): 1.55 µM
- TGI (BT-549 breast): 3.35 µM
- GI50 (ACHN renal): 3.66 µM
- TGI (ACHN renal): 13.8 µM
- GI50 (T-47D breast): 2.7 µM
- TGI (T-47D breast): 12.3 µM
- GI50 (MDA-MB-231 breast): 3.08 µM
- TGI (MDA-MB-231 breast): 10.8 µM
- GI50 (OVCAR-5 ovarian): 4.4 µM
- TGI (OVCAR-5 ovarian): 20.3 µM
- GI50 (OVCAR-8 ovarian): 9.39 µM
- TGI (OVCAR-8 ovarian): 22 µM
- GI50 (IGROV1 ovarian): 3.46 µM
- TGI (IGROV1 ovarian): 13.3 µM
- GI50 (COLO 205 colon): 2.21 µM
- TGI (COLO 205 colon): 4.83 µM
- GI50 (RPMI-8226 leukemia): 2.51 µM
- TGI (RPMI-8226 leukemia): 8.21 µM
- GI50 (OVCAR-4 ovarian): 11.4 µM
- TGI (OVCAR-4 ovarian): 24 µM
- GI50 (HCC-2998 colon): 1.95 µM
- TGI (HCC-2998 colon): 3.61 µM
- GI50 (KM12 colon): 1.66 µM
- TGI (KM12 colon): 3.23 µM
- GI50 (DU-145 prostate): 4.63 µM
- TGI (DU-145 prostate): 14.9 µM
- GI50 (LOX IMVI melanoma): 1.59 µM
- TGI (LOX IMVI melanoma): 3.07 µM
- GI50 (OVCAR-3 ovarian): 3.11 µM
- TGI (OVCAR-3 ovarian): 9.27 µM
- GI50 (RXF 393 renal): 1.7 µM
- TGI (RXF 393 renal): 3.45 µM
- GI50 (K-562 leukemia): 3.1 µM
- TGI (K-562 leukemia): > 100 µM
